Results taken from patent US7053194B2, “Compositions and methods for p53-mediated repression of gene expression” (Fox Chase Cancer Center, priority 1999, dated 2006).

Tested on: MCF7 breast carcinoma cells
Assay: Western analysis of p53 and survivin protein after doxorubicin
Type: cell-based, human
Details: twenty-four hour treatment
Procedure: MCF-7 cells were maintained in RPMI-1640 supplemented with 10% fetal bovine serum and 100 units/ml of penicillin and streptomycin. The human melanoma cell line CaCl, and the derivative clone expressing the HPV E6 gene, were cultured as described (Ahn et al., Oncogene). The human osteosarcoma cell lines Saos-2 and U2-OS (kindly provided by Peter Adams, Fox Chase Cancer Center), the murine p21 knock-out fibroblasts (kindly provided by James Sherley, MIT) and the human lung adenocarcinoma cell line H1299 were cultured in DMEM supplemented with 10% fetal bovine serum and 100 units/ml of penicillin and streptomycin. […] For treatment with ultra-violet light, cells were irradiated with 0–10 J/m2 (as noted) of UV-C with a Spectroline X series ultraviolet lamp, and output was monitored with a traceable UV light meter (Fisher Scientific). For drug treatment, cells were treated with 0.5ug/ml adriamycin (doxorubicin, Sigma), or dilution vehicle alone, for twenty-four hours. p53 induction was monitored by western analysis of 100 ug protein as described (Murphy et al., Genes & Devel. 10:2971–2980, 1996), using 0.1ug/ml DO-1 (Ab-6, Calbiochem) or 421 (Ab-1, Calbiochem.
Western analysis was performed essentially as described (Murphy et al., 1999). […] Protein concentrations were determined using the Bio-Rad Dc Protein Assay (Bio-Rad). […]

COc1cccc2c1C(=O)c1c(O)c3c(c(O)c1C2=O)C[C@@](O)(C(=O)CO)C[C@@H]3O[C@H]1C[C@H](N)[C@H](O)[C@H](C)O1 [adriamycin, doxorubicin]
decrease of survivin protein levels: 3–4 fold
induction of p53 expression: 4 fold
